Consider 16 compounds from patent US5011949A, “Ascorbic acid derivative” (Nippon Hypox Laboratories, Inc., priority 1989, dated 1991).

The nature of the first test: Antioxidant action examined by using stable free radicals: reduction activity of DPPH (M. S. Blois method), absorbance at 517 nm. The format is biochemical. The conditions noted are these: 1 mM DPPH in ethanol, after 20 minutes, difference from solvent control (0.5% or less DMF), read-out: 50% radical eliminating concentration. Here is the method:
Test Example 1 (Antioxidant Action Examined by Using Stable Free Radicals)
Reduction activity of α,α-diphenyl-β-picrylhydrazyl (DPPH) which was a stable free radical was examined according to the M. S. Blois method (nature, vol. 181, page 1199, 1958) and used as an index to antioxidant action. Thus, specimens were added to 3 ml of a 1 mM DPPH solution in ethanol, and absorbance at a wavelength of 517 nm was measured using a spectrophotometer after 20 minutes. The difference in absorbance from the solvent control [0.5% or less of dimethylformamide (DMF)]was taken as the reduction activity.
For the compound `CCCCOC1=C(O)[C@@H]([C@@H]2COC(C)(C)O2)OC1=O` [Compound 201], the IC50 was determined as 14 µM.

For `CCOC(=O)CCCOC1=C(O)[C@@H]([C@@H]2COC(C)(C)O2)OC1=O` [Compound 202], the IC50 turned out to be 16 µM.

As for `CC1(C)OC[C@@H]([C@H]2OC(=O)C(OCCCC(=O)O)=C2O)O1` [Compound 203], the IC50 came to 28 µM.

As for `CCOC(=O)C(C)OC1=C(O)C(C2COC(C)(C)O2)OC1=O` (stereo not shown) [Compound 204], the IC50 was 25 µM.

Turning to `CCCCOC(=O)COC1=C(O)[C@@H]([C@@H]2COC(C)(C)O2)OC1=O` [Compound 205], the IC50 is 30 µM.

Turning to `CC(=O)COC1=C(O)[C@@H]([C@@H]2COC(C)(C)O2)OC1=O` [Compound 206, L-5,6-O-isopropylidene-2-O-methylcarbomethylascorbic acid], the IC50 came to 14 µM.

In the case of `CCCCCCCCCCCCCCCCCCOC1=C(O)[C@@H]([C@@H](O)CO)OC1=O` [Compound 301], the IC50 was found to be 28 µM.

Take `CCCCCCCCCCCCOC1=C(O)[C@@H]([C@@H](O)CO)OC1=O` [Compound 302]: the IC50 turned out to be 26 µM.

On to `CCCCCCCCOC1=C(O)[C@@H]([C@@H](O)CO)OC1=O` [Compound 303], for which the IC50 was determined as 26 µM.

`CCCCOC1=C(O)[C@@H]([C@@H](O)CO)OC1=O` [Compound 304]: the IC50 amounted to 17 µM.

Take `O=C1O[C@H]([C@@H](O)CO)C(O)=C1OCc1ccccc1` [Compound 305]: the IC50 stood at 29 µM.

As to `CCOC(=O)CCCOC1=C(O)[C@@H]([C@@H](O)CO)OC1=O` [Compound 306], the IC50 was found to be 29 µM.

With `O=C(O)CCCOC1=C(O)[C@@H]([C@@H](O)CO)OC1=O` [Compound 307], the IC50 was 33 µM.

Take `CCOC(=O)C(C)OC1=C(O)[C@@H]([C@@H](O)CO)OC1=O` (stereo partly shown) [Compound 308]: the IC50 is 25 µM.

As for `CCCCOC(=O)COC1=C(O)[C@@H]([C@@H](O)CO)OC1=O` [Compound 309], the IC50 was 28 µM.

Turning to `CC(=O)COC1=C(O)[C@@H]([C@@H](O)CO)OC1=O` [Compound 310, L-2-O-methylcarbomethylascorbic acid], the IC50 came out at 17 µM.

Another test is described as follows: Effects on formazan formation in the xanthine-xanthine oxidase-Nitrotetrazolium Blue system (superoxide anion radicals). The format is biochemical. The conditions noted are these: 0.5 mM; pH 7.8, 30° C.; 10 min. Here is the method:
Test Example 2 (Effects on Formazan Formation in the Xanthine-xanthine Oxidase-Nitrotetrazolium Blue System)
Specimens were added to a 0.05 M phosphoric acid buffer solution (pH 7.8) containing xanthine, EDTA 2Na and Nitrotetrazolium Blue (NTB) so as to provide the respective final concentrations of 5×10^-5 M, 1×10^-4 M and 5×10^-4 M and warmed at 30° C. for 30 minutes. Xanthine oxidase (manufactured by Sigma Corp.) was added, and the resulting mixtures were warmed at 30° C. for 10 minutes to colorimetrically determine formazan formed by superoxide anion radicals. The inhibition ratio of formazan formation was determined from the results at concentrations of 0.5 mM and 4 mM of each specimen.
Regarding `CCCCOC1=C(O)[C@@H]([C@@H]2COC(C)(C)O2)OC1=O` [Compound 201], the “Inhibition ratio (%) of formazan formation” value (“Inhibition ratio (%)” below) turned out to be 9.1%.

In the case of `CC(=O)COC1=C(O)[C@@H]([C@@H]2COC(C)(C)O2)OC1=O` [Compound 206, L-5,6-O-isopropylidene-2-O-methylcarbomethylascorbic acid], the “Inhibition ratio (%)” value amounted to 17.8%.

The same test, now with this note: 4 mM; pH 7.8, 30° C.; 10 min.
Take `CCCCOC1=C(O)[C@@H]([C@@H]2COC(C)(C)O2)OC1=O` [Compound 201]: the “Inhibition ratio (%)” value is 19.1%.

As to `CC(=O)COC1=C(O)[C@@H]([C@@H]2COC(C)(C)O2)OC1=O` [Compound 206, L-5,6-O-isopropylidene-2-O-methylcarbomethylascorbic acid], the “Inhibition ratio (%)” value is recorded as 55.5%.

The same test, now with this note: from Table-4, 0.5 mM and 4 mM.
Take `CCCCOC1=C(O)[C@@H]([C@@H]2COC(C)(C)O2)OC1=O` [Compound 201]: the “inhibition of formazan formation (in words)” value is on record as “remarkably inhibited formazan formation”.

As for `CC(=O)COC1=C(O)[C@@H]([C@@H]2COC(C)(C)O2)OC1=O` [Compound 206, L-5,6-O-isopropylidene-2-O-methylcarbomethylascorbic acid], the “inhibition of formazan formation (in words)” value is listed as “remarkably inhibited formazan formation”.
